Bridge positions count the residues as written; N and C are the ends. Square brackets hold non-standard residues; d marks the D form. Peptide text beside a SMILES is read from it. * marks the point of attachment. Ileψ(thiazoline)Cys = CC[C@H](C)[C@H](N)C1=N[C@H](C(=O)*)CS1; dOrn = NCCC[C@@H](N)C(=O)O
What was measured:
HSV-2 (strain HG-52) = experiment: Inhibition of HSV-2 replication in serum-starved BHK 21/C13 cells (cell culture technique, virus titration); type: cell-based; conditions: for PFU per cell for control/PFU per cell for agent: 30 hours post infection; for PFU PER CELL: infected BHK 21/C13 cells harvested 30 hours post infection, control 67.00
Protocol: This method in a modified form is exemplified hereinafter.
(a) Preparation of serum-starved cells: A medium composed of alpha medium (Gibco Canada Inc, Burlington, Ontario, Canada) and fetal calf serum (Gibco Canada Inc.), in a 9:1 volume ratio, was placed in tissue culture dishes (35 mm, A/S Nunc, Kamstrup, Denmark). The medium in each dish was seeded with BHK 21/C13 cells (1.5 ×10^6 for each dish). (BHK 21/C13 cells have been described by Y. Langelier and G. Buttin, J. Gen. Virol., 57, 21 (1981)). After 6 hours, the medium was replaced with a new medium composed of alpha medium and fetal calf serum (99.5:0.5 v/v). The resultant preparation was incubated at 37° C. for 4 days.
(b) Cell infection in BBMT medium* without serum: The incubation medium was removed from the cells. The cells were washed twice with alpha medium (without the serum) and once with the BBMT medium. The cells were then incubated at 37° C. in BBMT medium for two hours. A series of viral solutions were prepared from a stock of HSV-2 (strain HG-52, described by Langelier and Buttin, supra) and the appropriate choice and amounts of the agents to be tested, diluted with BBMT to give viral solutions having a multiplicity of infection of 0.02 plaque forming units (PFU) per cell. A control viral solution (without any agent) also was prepared. Each viral solution (250 μl) was added to duplicate dishes containing the previously prepared cells in BBMT medium. After one hour of incubation at 37° C. for virus absorption, the medium in each dish was removed by aspiration. The cells were washed twice with BBMT medium. Fresh BBMT medium (800 μl), with or without (control) the appropriate concentration of the test agent, was added to the dishes which were further incubated at 37° C. Every six hours, a concentrated solution of bacitracin in BBMT was added to the appropriate dishes to maintain the initial concentration of that agent.
*BBMT medium is described by P. Brazeau et al., Proc. Natl. Acad. Sci. USA, 79, 7909 (1982).
(c) Harvesting: At 30 hours post-infection, cells were detached with a rubber policeman and frozen at -80° C. until titration.
(d) Titration: Virus titration were performed according to the method of B. B. Wentworth and L. French, Proc. Soc. Exp. Biol. Med., 131, 588 (1969).
The following table is illustrative of the results obtained when acyclovir, bacitracin and combinations thereof were tested for activity according to the preceding method. Results are expressed in PFU per cell for infected cells harvested at 30 hours post infection. The lower the PFU per cell value, the greater the inhibitory effect on viral replication of the tested agent.

[1] = test system: herpes simplex virus type 1 (HSV-1); conditions: bacitracin used alone; reported by Alarcon et al.; cited from earlier work

SMILES | PFU per cell for control/PFU per cell for agent (HSV-2 (strain HG-52); Acyclovir 0.50 μM) | PFU PER CELL (HSV-2 (strain HG-52); Acyclovir 0.50 μM) | PFU per cell for control/PFU per cell for agent (HSV-2 (strain HG-52); Acyclovir 2.00 μM) | PFU PER CELL (HSV-2 (strain HG-52); Acyclovir 2.00 μM) | PFU per cell for control/PFU per cell for agent (HSV-2 (strain HG-52); Bacitracin 0.25 mM) | PFU PER CELL (HSV-2 (strain HG-52); Bacitracin 0.25 mM) | PFU per cell for control/PFU per cell for agent (HSV-2 (strain HG-52); Bacitracin 0.50 mM) | PFU PER CELL (HSV-2 (strain HG-52); Bacitracin 0.50 mM) | PFU per cell for control/PFU per cell for agent (HSV-2 (strain HG-52); Bacitracin 0.75 mM) | PFU PER CELL (HSV-2 (strain HG-52); Bacitracin 0.75 mM) | PFU per cell for control/PFU per cell for agent (HSV-2 (strain HG-52); Bacitracin 1.00 mM) | PFU PER CELL (HSV-2 (strain HG-52); Bacitracin 1.00 mM) | activity against herpes simplex virus type 1 (HSV-1) [1]
Nc1nc2c(ncn2COCCO)c(=O)[nH]1 [Acyclovir, 9-((2-hydroxyethoxy)methyl)guanine] | 3.96 | 16.9 PFU per cell | 13.67 | 4.9 PFU per cell | – | – | – | – | – | – | – | – | –
CC[C@H](C)[C@H](N)C1=N[C@H](C(=O)N[C@@H](CC(C)C)C(=O)N[C@H](CCC(=O)O)C(=O)N[C@H](C(=O)N[C@H]2CCCCNC(=O)[C@H](CC(N)=O)NC(=O)[C@@H](CC(=O)O)NC(=O)[C@H](Cc3cnc[nH]3)NC(=O)[C@@H](Cc3ccccc3)NC(=O)[C@H]([C@@H](C)CC)NC(=O)[C@@H](CCCN)NC2=O)[C@@H](C)CC)CS1 [Bacitracin] ({Ileψ(thiazoline)Cys}-L[dE]IK[dOrn]I[dF]H[dD]N; lactam 4-C) | – | – | – | – | 62.0 | 1.08 PFU per cell | 515.0 | 0.13 PFU per cell | 4786.0 | 0.014 PFU per cell | 8375.0 | 0.008 PFU per cell | inactive

Reference: patent US5002932A, “Antiviral pharmaceutical compositions and method of treating herpes” (priority 1987, dated 1991)
